The values that follow come from patent US20110230485A1, “6-PHENYL-PYRIMIDIN-4-YL-(PHENYLAMINE OR PHENOXY) DERIVATIVES USEFUL AS MODULATORS OF NICOTINIC ACETYLCHOLINE RECEPTORS” (NEUROSEARCH A/S, priority 2008, published 2011).

Data set [1] deals with T1, wild-type nAChR α7 receptors (Homo sapiens, UniProt P36544).
T1 construct: expressed in transfected cells; host or cells: Xenopus laevis oocytes
In words: Positive modulation of nAChR α7 receptors expressed in Xenopus laevis oocytes, two-electrode voltage clamp. The settings on record: oocytes clamped at −60 mV; for Emax: read-out: Imax; for EC50: positive modulation of current induced by 100 μM acetylcholine, test compound 0.01-31.6 μM applied 30 s before and during acetylcholine. It counts as cell-based. On the procedure:
In this example the positive modulation of wild-type nAChR α7 receptors by the compounds of the invention was determined using nAChR α7 receptors heterologously expressed in Xenopus laevis oocytes.
The electrical current through the nAChR α7 channel was measured using conventional two-electrode voltage clamp and nAChR α7 currents were activated by applying pulses of agonist-containing solution onto the nAChR α7 expressing oocyte.
In brief, the oocytes were placed in a recording chambers and continuously super-fused with an Oocyte Ringer (OR) solution containing 90 mM NaCl, 2.5 mM KCl, 2.5 mM CaCl2, 1 mM MgCl2 and 5 mM HEPES (pH adjusted to 7.4). The oocytes were clamped at −60 mV and currents were induced by applying 20 s pulses of 100 μM acetylcholine dissolved in OR. The intervals between the acetylcholine applications were 5 minutes, during which the oocytes were washed with OR. The first three applications were control applications to insure a constant response level of 100 μM acetylcholine. For the subsequent test applications, increasing concentrations (0.01-31.6 μM) of the test compound were applied 30 s before and during the acetylcholine (100 μM) application, which caused a robust increase in the acetylcholine-induced current amplitude.
The positive modulation in the presence of Compound was calculated as (test-control)/control×100% and the concentration response curve for this positive modulation was fitted to the sigmoidal logistic equation:
I=Imax/(1+(EC50/[compound])^n),
where Imax represents the maximal modulation of the control response, EC50 is the concentration causing a half maximal response, and n is the slope coefficient.
(Two-electrode voltage clamp holds a large cell at a set potential and records current.)

Where [2] appears, read: maximal modulation of the control response to 100 μM acetylcholine, (test-control)/control×100%.

T1 sequence (P36544 23-502): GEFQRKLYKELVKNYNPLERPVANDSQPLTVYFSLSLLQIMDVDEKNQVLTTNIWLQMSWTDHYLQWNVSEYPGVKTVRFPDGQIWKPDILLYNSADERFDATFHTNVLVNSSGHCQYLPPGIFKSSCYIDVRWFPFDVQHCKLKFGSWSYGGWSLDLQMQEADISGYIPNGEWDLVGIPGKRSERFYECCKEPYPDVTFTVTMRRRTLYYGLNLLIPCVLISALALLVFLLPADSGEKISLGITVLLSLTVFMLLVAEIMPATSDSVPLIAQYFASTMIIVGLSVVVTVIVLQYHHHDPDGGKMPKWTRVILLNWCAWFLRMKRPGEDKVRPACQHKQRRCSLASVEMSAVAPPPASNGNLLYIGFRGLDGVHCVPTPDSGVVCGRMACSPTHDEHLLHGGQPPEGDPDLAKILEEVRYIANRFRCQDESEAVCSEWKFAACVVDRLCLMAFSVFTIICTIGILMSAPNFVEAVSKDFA

Regarding `Cc1ccc(Nc2nc(C)nc(-c3ccc(C(F)(F)F)cc3F)c2N)cc1` [Compound 1.27, 6-(2-Fluoro-4-trifluoromethyl-phenyl)-2-methyl-N*4*-p-tolyl-pyrimidine-4,5-diamine], in data set [1] (setting [2]), the Emax turned out to be 503%. The same compound came in with an EC50 in data set [1] of 3.4 µM.
Regarding `Cc1nc(Nc2ccc3c(c2)OCCO3)c(N)c(-c2ccc(C(F)(F)F)cc2F)n1` [Compound 1.29, N*4*-(2,3-Dihydro-benzo[1,4 dioxin-6-yl)-6-(2-fluoro-4-trifluoromethyl-phenyl)-2-methyl-pyrimidine-4,5-diamine], in data set [1] (setting [2]), the Emax is 297%. The compound also came in with an EC50 in data set [1] of 9.4 µM.
In turn, `O=[N+]([O-])c1c(Nc2ccc(O)cc2)ncnc1-c1ccc(C(F)(F)F)cc1F` [Compound 1.2, 4-[6-(2-Fluoro-4-trifluoromethyl-phenyl)-5-nitro-pyrimidin-4-ylamino]-phenol] returned a melting point of 169 to 171.5 °C. Besides, the Emax in data set [1] (setting [2]) turned out to be 391%. The compound also returned an EC50 in data set [1] of 23 µM.
Regarding `Nc1c(Nc2ccc(O)nc2)ncnc1-c1ccc(C(F)(F)F)cc1F` [Compound 1.11, 5-[5-Amino-6-(2-fluoro-4-trifluoromethyl-phenyl)-pyrimidin-4-ylamino]-pyridin-2-ol], the Emax in data set [1] (setting [2]) came out at 22%.
Take `Nc1c(Nc2ccc3c(c2)OCO3)ncnc1-c1ccc(C(F)(F)F)cc1F` [Compound 1.13, N*4*-Benzo[1,3]dioxol-5-yl-6-(2-fluoro-4-trifluoromethyl-phenyl)-pyrimidine-4,5-diamine]: in data set [1] (setting [2]), the Emax was 848%. Further, the midpoint of the response in data set [1], the EC50, lay at 54 µM.
In the same order, the values of `Cc1nc(Nc2ccc3ccccc3c2)c(N)c(-c2ccc(C(F)(F)F)cc2F)n1` [Compound 1.34, 6-(2-Fluoro-4-trifluoromethyl-phenyl)-2-methyl-N*4*-naphthalen-2-v1-pyrimidine-4,5-diamine] are 148% and 4.3 µM.
Regarding `COc1cccc(Nc2nc(C)nc(-c3ccc(C(F)(F)F)cc3F)c2N)c1` [Compound 1.31, 6-(2-Fluoro-4-trifluoromethyl-phenyl)-N*4*-(3-methoxy-phenyl)-2-methyl-pyrimidine-4,5-diamine], in data set [1] (setting [2]), the Emax is 193%. Further, the half-maximal effective concentration (EC50) in data set [1] was determined as 5.7 µM.
Take `COc1ccc(Nc2nc(C)nc(-c3ccc(C(F)(F)F)cc3F)c2N)c(OC)c1` [Compound 1.33, N*4*-(2,4-Dimethoxy-phenyl)-6-(2-fluoro-4-trifluoromethyl-phenyl)-2-methyl-pyrimidine-4,5-diamine]: the Emax in data set [1] (setting [2]) amounted to 11%. For the same compound, in data set [1], the response was half-maximal at 1.1 µM (EC50).
Turning to `Nc1c(Nc2ccc(S(N)(=O)=O)cc2)ncnc1-c1ccc(C(F)(F)F)cc1F` [Compound 1.8, 4-[5-Amino-6-(2-fluoro-4-trifluoromethyl-phenyl)-pyrimidin-4-ylamino]-benzenesulfonamide], the Emax in data set [1] (setting [2]) worked out at 237%. Moreover, in data set [1], the response was half-maximal at 6.8 µM (EC50).
For `O=[N+]([O-])c1c(Nc2ccc3[nH]ccc3c2)ncnc1-c1ccc(C(F)(F)F)cc1F` [Compound 1.9, [6-(2-Fluoro-4-trifluoromethyl-phenyl)-5-nitro-pyrimidin-4-yl]-(1H-indol-5-yl)-amine], the Emax in data set [1] (setting [2]) is 527%. Besides, the EC50 in data set [1] was found to be 6.9 µM.
Regarding `Nc1c(Nc2ccc3[nH]ccc3c2)ncnc1-c1ccc(C(F)(F)F)cc1F` [Compound 1.10, 6-(2-Fluoro-4-trifluoromethyl-phenyl)-N*4*-(1H-indol-5-yl)-pyrimidine-4,5-diamine], the Emax in data set [1] (setting [2]) is 631%. The EC50 in data set [1] was 0.24 µM.
The compound `COc1ccc(Nc2ncnc(-c3ccc(C(F)(F)F)cc3F)c2N)cn1` [Compound 1.6, 6-(2-Fluoro-4-trifluoromethyl-phenyl)-N*4*-(6-methoxy-rwridin-3-yl)-pyrimidine-4,5-diamine] registered an Imax in data set [1] (setting [2]) of 129%.
As for `Cc1nc(Oc2ccc3c(c2)OCO3)c(N)c(-c2ccc(C(F)(F)F)cc2F)n1` [Compound 2.9], the Emax in data set [1] (setting [2]) was found to be 35%. The compound also showed an EC50 in data set [1] of 0.74 µM.
`Nc1c(Nc2ccc(O)cc2)ncnc1-c1ccc(C(F)(F)F)cc1F` [Compound 1.4, 4-[5-Amino-6-(2-fluoro-4-trifluoromethyl-phenyl)-pyrimidin-4-ylamino]-phenol]: the melting point was 194.2 to 195.7 °C.
The compound `COc1ccc(Nc2ncnc(-c3ccc(C(F)(F)F)cc3F)c2N)cc1` [Compound 1.3, 6-(2-Fluoro-4-trifluoromethyl-phenyl)-N*4*-(4-methoxy-Phenyl)-pyrimidine-4,5-diamine] showed a melting point of 212.1 to 213.2 °C. This compound came in with an EC50 in data set [1] of 2.3 µM.
For the compound `COc1ccc(Oc2ncnc(-c3ccc(C(F)(F)F)cc3F)c2N)cc1` [Compound 2.2, 4-(2-Fluoro-4-trifluoromethyl-phenyl)-6-(4-methoxy-phenoxy)-pyrimidin-5-ylamine], the Emax in data set [1] (setting [2]) was 119%. In data set [1], this compound displayed an EC50 of 6.6 µM.
Consider `Nc1c(Nc2ccc(OCC3CC3)cc2)ncnc1-c1ccc(C(F)(F)F)cc1F` [Compound 1.14, N*4*-(4-Cyclopropylmethoxy-phenyl)-6-(2-fluoro-4-trifluoromethyl-phenyl)-pyrimidine-4,5-diamine], for which the Emax in data set [1] (setting [2]) amounted to 3%.
In the case of `COc1ccc(Oc2nc(C)nc(-c3ccc(C(F)(F)F)cc3F)c2N)cc1` [Compound 2.13, 4-(2-Fluoro-4-trifluoromethyl-phenyl)-6-(4-methoxy-phenoxy)-2-methyl-pyrimidin-5-ylamine], in data set [1] (setting [2]), the Emax is 42%. This compound also returned an EC50 in data set [1] of 6 µM.
Turning to `COc1ccc(Nc2ncnc(-c3ccc(C(F)(F)F)cc3F)c2[N+](=O)[O-])cn1` [Compound 1.5, [6-(2-Fluoro-4-trifluoromethyl-phenyl)-5-nitro-pyrimidin-4-yl]-(6-methoxy-pyridin-3-yl)-amine], in data set [1] (setting [2]), the Emax was 137%. Also, the response in data set [1] was half-maximal at 6.6 µM (EC50).
Consider `COc1ccc(Nc2nc(C)nc(-c3ccc(C(F)(F)F)cc3F)c2N)cc1` [Compound 1.16, 6-(2-Fluoro-4-trifluoromethyl-phenyl)-N*4*-(4-methoxy-phenyl)-2-methyl-pyrimidine-4,5-diamine], for which, in data set [1] (setting [2]), the Emax is 495%. Further, the EC50 in data set [1] amounted to 4.9 µM.
The corresponding values for `Nc1c(Nc2ccc3[nH]ncc3c2)ncnc1-c1ccc(C(F)(F)F)cc1F` [Compound 1.12, 6-(2-Fluoro-4-trifluoromethyl-phenyl)-N*4*-(1H-indazol-5-yl)-pyrimidine-4,5-diamine] are 184% and 9.9 µM.
With `CSc1cccc(Nc2nc(C)nc(-c3ccc(C(F)(F)F)cc3F)c2N)c1` [Compound 1.32, 6-(2-Fluoro-4-trifluoromethyl-phenyl)-2-methyl-N*4*-(3-methylsulfanyl-phenyl)-pyrimidine-4,5-diamine], in data set [1] (setting [2]), the Emax was determined as 245%. In data set [1], this compound came in with an EC50 of 9.8 µM.
As for `Nc1c(Oc2ccc(O)cc2)ncnc1-c1ccc(C(F)(F)F)cc1F` [Compound 2.3], the Emax in data set [1] (setting [2]) is 104%. The EC50 in data set [1] is 15 µM.
`COc1ccc(Nc2ncnc(-c3ccc(C(F)(F)F)cc3F)c2[N+](=O)[O-])cc1` [Compound 1.1, [6-(2-Fluoro-4-trifluoromethyl-phenyl)-5-nitro-pyrimidin-4-yl]-(4-methoxy-phenyl)-amine] had a melting point of 155.6 to 155.8 °C. In data set [1] (setting [2]), the Emax is 2%.
In the case of `COc1ccc(Oc2ncnc(-c3ccc(C(F)(F)F)cc3F)c2[N+](=O)[O-])cc1` [Compound 2.1, 4-(2-Fluoro-4-trifluoromethyl-phenyl)-6-(4-methoxy-phenoxy)-5-nitro-pyrimidine], the Emax in data set [1] (setting [2]) turned out to be 19%.

The EC50 is the concentration at which the effect is half-maximal. As a reminder, the melting point is the temperature, or range, at which the solid turns liquid.
